{
  "source": "paper PMC9506414",
  "about": "“Novel 2,6,9-Trisubstituted Purines as Potent CDK Inhibitors Alleviating Trastuzumab-Resistance of HER2-Positive Breast Cancers” (Pharmaceuticals, 2022)",
  "assay_in_all_cases": "Kinome-wide inhibition profiling",
  "format_in_all_cases": "biochemical",
  "key": {"AKT1": {"target": "T1, AKT1 (Homo sapiens, UniProt P31749)", "T1 construct": "purchased Reaction Biology Corp", "description": "(§1) In vitro CDK12/cyclinK assays for all compounds and in vitro kinome-wide inhibition profiling of 30d at 10 μM were performed by a CRO company (Reaction Biology Corp., San Diego, CA, USA)."}, "ARAF": {"target": "T2, ARAF (Homo sapiens, UniProt P10398)", "T2 construct": "purchased Reaction Biology Corp", "description": "as §1"}, "AurkA": {"target": "T3, AurkA (Homo sapiens, UniProt O14965)", "T3 construct": "purchased Reaction Biology Corp", "description": "as §1"}, "BLK": {"target": "T4, BLK (Homo sapiens, UniProt P51451)", "T4 construct": "purchased Reaction Biology Corp", "description": "as §1"}, "BMX": {"target": "T5, BMX (Homo sapiens, UniProt P51813)", "T5 construct": "purchased Reaction Biology Corp", "description": "as §1"}, "CAMK2g": {"target": "T6, CAMK2g (Homo sapiens, UniProt Q13555)", "T6 construct": "purchased Reaction Biology Corp", "T6 sequence (Q13555 whole entry)": "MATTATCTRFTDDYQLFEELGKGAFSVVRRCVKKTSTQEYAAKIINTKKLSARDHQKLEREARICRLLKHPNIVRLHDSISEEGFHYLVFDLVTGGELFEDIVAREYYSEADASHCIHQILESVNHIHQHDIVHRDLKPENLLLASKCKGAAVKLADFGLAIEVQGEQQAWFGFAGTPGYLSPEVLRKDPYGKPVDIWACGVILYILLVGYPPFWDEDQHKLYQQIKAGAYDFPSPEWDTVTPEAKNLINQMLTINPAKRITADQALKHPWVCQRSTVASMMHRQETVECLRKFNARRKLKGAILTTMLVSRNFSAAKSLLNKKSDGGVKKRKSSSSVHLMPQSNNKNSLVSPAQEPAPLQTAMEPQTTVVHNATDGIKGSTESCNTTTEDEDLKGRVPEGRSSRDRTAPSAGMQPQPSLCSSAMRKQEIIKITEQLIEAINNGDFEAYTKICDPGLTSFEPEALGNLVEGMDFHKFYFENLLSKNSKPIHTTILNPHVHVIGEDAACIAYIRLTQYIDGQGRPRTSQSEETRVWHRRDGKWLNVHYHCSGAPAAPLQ", "description": "as §1"}, "CDK4/cyclinD1": {"target": "T7, CDK4/cyclinD1 (Homo sapiens, UniProt P11802)", "T7 construct": "purchased Reaction Biology Corp", "description": "as §1"}, "CSNK1G1": {"target": "T8, CSNK1G1 (Homo sapiens, UniProt Q9HCP0)", "T8 construct": "purchased Reaction Biology Corp", "description": "as §1"}, "EPHB4": {"target": "T9, EPHB4 (Homo sapiens, UniProt P54760)", "T9 construct": "purchased Reaction Biology Corp", "description": "as §1"}, "GRK1": {"target": "T10, GRK1 (Homo sapiens, UniProt Q15835)", "T10 construct": "purchased Reaction Biology Corp", "description": "as §1"}, "GRK3": {"target": "T11, GRK3 (Homo sapiens, UniProt P35626)", "T11 construct": "purchased Reaction Biology Corp", "description": "as §1"}, "GRK6": {"target": "T12, GRK6 (Homo sapiens, UniProt P43250)", "T12 construct": "purchased Reaction Biology Corp", "description": "as §1"}, "IKK-epsilon": {"target": "T13, IKK-epsilon (Homo sapiens, UniProt Q14164)", "T13 construct": "purchased Reaction Biology Corp", "T13 sequence (Q14164 whole entry)": "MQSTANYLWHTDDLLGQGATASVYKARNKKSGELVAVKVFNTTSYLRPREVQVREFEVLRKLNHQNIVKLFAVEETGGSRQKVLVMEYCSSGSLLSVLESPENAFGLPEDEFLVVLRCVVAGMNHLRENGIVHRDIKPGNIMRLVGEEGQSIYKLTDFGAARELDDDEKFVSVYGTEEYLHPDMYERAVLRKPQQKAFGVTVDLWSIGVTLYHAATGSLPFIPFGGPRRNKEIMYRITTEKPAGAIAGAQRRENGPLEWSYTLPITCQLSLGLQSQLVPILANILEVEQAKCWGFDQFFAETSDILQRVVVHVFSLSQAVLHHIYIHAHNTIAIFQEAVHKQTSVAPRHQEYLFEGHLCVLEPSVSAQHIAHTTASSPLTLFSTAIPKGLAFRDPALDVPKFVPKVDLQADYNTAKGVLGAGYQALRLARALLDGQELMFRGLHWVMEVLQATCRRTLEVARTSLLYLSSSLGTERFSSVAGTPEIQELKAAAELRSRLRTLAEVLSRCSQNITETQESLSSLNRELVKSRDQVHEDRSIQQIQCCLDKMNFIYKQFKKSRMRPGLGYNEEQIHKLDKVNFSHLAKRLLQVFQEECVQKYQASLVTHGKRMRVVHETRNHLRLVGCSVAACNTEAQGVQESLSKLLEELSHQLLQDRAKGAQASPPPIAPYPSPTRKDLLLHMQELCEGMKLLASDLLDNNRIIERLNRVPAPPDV", "description": "as §1"}, "IRAK1": {"target": "T14, IRAK1 (Homo sapiens, UniProt P51617)", "T14 construct": "purchased Reaction Biology Corp", "T14 sequence (P51617 whole entry)": "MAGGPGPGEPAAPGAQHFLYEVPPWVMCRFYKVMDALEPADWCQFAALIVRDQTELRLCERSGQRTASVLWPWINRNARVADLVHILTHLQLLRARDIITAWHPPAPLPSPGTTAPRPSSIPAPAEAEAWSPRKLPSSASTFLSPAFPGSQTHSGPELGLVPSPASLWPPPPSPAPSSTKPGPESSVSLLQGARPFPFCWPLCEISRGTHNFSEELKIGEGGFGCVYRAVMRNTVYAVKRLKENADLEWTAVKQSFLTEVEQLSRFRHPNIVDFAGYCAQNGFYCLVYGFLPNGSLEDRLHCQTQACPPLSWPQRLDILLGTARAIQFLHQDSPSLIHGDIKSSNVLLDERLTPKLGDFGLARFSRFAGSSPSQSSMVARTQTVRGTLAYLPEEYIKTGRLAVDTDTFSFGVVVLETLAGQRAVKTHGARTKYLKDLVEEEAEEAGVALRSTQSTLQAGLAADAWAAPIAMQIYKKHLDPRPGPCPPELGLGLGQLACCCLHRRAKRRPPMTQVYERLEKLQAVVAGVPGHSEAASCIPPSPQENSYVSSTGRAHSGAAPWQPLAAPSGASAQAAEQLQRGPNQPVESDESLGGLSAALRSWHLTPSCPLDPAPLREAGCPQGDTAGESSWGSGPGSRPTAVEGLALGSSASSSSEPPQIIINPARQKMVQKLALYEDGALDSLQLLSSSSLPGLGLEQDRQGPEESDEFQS", "description": "as §1"}, "Kit": {"target": "T15, Kit (Homo sapiens, UniProt P10721)", "T15 construct": "purchased Reaction Biology Corp", "description": "as §1"}, "LATS1": {"target": "T16, LATS1 (Homo sapiens, UniProt O95835)", "T16 construct": "purchased Reaction Biology Corp", "description": "as §1"}, "LATS2": {"target": "T17, LATS2 (Homo sapiens, UniProt Q9NRM7)", "T17 construct": "purchased Reaction Biology Corp", "description": "as §1"}, "LIMK2": {"target": "T18, LIMK2 (Homo sapiens, UniProt P53671)", "T18 construct": "purchased Reaction Biology Corp", "description": "as §1"}, "MAP3K2": {"target": "T19, MAP3K2 (Homo sapiens, UniProt Q9Y2U5)", "T19 construct": "purchased Reaction Biology Corp", "T19 sequence (Q9Y2U5 whole entry)": "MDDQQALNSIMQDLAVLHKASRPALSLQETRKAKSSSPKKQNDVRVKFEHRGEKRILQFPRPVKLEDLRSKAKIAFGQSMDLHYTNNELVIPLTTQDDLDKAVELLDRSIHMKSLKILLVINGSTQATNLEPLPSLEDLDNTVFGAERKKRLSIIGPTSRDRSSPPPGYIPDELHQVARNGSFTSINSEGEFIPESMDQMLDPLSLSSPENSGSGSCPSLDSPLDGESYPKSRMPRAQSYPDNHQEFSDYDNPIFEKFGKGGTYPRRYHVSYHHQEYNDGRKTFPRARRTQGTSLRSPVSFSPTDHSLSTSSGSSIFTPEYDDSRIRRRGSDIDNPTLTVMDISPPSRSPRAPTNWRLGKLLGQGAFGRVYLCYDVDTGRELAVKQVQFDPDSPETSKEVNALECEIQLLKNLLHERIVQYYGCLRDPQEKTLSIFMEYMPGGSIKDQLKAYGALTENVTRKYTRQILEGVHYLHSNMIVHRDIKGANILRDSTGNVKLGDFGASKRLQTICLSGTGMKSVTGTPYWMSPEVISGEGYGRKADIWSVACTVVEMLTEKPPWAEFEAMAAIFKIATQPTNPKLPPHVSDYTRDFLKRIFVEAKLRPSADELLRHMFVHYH", "description": "as §1"}, "MAPKAPK2": {"target": "T20, MAPKAPK2 (Homo sapiens, UniProt P49137)", "T20 construct": "purchased Reaction Biology Corp", "T20 sequence (P49137 whole entry)": "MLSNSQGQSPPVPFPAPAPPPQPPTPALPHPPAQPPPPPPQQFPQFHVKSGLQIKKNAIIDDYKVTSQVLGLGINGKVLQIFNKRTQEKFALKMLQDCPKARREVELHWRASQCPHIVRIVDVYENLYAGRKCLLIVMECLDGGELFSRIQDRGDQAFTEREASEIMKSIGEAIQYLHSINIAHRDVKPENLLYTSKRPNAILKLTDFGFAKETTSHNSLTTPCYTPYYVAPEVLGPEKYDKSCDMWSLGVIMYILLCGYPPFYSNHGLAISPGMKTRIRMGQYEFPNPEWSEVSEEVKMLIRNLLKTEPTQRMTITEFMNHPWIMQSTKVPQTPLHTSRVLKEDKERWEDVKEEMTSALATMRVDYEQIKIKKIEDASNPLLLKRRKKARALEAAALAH", "description": "as §1"}, "MAPKAPK3": {"target": "T21, MAPKAPK3 (Homo sapiens, UniProt Q16644)", "T21 construct": "purchased Reaction Biology Corp", "description": "as §1"}, "MERTK": {"target": "T22, MERTK (Homo sapiens, UniProt Q12866)", "T22 construct": "purchased Reaction Biology Corp", "description": "as §1"}, "MET": {"target": "T23, MET (Homo sapiens, UniProt P08581)", "T23 construct": "purchased Reaction Biology Corp", "description": "as §1"}, "MKK6": {"target": "T24, MKK6 (Homo sapiens, UniProt P52564)", "T24 construct": "purchased Reaction Biology Corp", "description": "as §1"}, "MYO3b": {"target": "T25, MYO3b (Homo sapiens, UniProt Q8WXR4)", "T25 construct": "purchased Reaction Biology Corp", "description": "as §1"}, "NEK7": {"target": "T26, NEK7 (Homo sapiens, UniProt Q8TDX7)", "T26 construct": "purchased Reaction Biology Corp", "T26 sequence (Q8TDX7 whole entry)": "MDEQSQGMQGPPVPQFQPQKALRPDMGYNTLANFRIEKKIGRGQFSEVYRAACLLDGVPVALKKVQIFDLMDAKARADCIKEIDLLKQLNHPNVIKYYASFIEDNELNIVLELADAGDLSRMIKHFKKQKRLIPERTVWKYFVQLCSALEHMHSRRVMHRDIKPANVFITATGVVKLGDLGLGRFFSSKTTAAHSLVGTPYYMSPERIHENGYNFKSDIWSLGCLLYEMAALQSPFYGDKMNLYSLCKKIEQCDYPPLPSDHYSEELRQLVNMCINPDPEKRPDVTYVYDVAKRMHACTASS", "description": "as §1"}, "PBK/TOPK": {"target": "T27, PBK/TOPK (Homo sapiens, UniProt Q96KB5)", "T27 construct": "purchased Reaction Biology Corp", "description": "as §1"}, "PDPK1": {"target": "T28, PDPK1 (Homo sapiens, UniProt O15530)", "T28 construct": "purchased Reaction Biology Corp", "description": "as §1"}, "PIM2": {"target": "T29, PIM2 (Homo sapiens, UniProt Q9P1W9)", "T29 construct": "purchased Reaction Biology Corp", "description": "as §1"}, "PKCb1": {"target": "T30, PKCb1 (Homo sapiens, UniProt P05771)", "T30 construct": "purchased Reaction Biology Corp", "T30 sequence (P05771 whole entry)": "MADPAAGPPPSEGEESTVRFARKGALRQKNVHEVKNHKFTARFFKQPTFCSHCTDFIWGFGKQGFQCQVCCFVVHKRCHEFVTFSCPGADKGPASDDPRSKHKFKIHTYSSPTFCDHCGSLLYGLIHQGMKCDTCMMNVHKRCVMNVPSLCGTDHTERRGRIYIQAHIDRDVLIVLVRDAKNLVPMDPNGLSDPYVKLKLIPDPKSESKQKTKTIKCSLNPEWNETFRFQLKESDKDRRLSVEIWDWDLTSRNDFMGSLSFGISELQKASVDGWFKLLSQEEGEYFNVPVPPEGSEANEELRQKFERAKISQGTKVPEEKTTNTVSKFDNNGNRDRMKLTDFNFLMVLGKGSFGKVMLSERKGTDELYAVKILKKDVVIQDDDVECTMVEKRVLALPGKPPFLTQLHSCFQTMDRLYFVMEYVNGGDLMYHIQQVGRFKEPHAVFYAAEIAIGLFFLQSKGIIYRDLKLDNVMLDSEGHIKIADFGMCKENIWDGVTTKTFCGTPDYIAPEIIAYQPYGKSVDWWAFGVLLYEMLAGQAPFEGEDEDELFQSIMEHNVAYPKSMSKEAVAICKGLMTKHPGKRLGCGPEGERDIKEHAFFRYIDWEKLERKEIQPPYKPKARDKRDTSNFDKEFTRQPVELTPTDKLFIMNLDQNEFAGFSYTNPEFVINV", "description": "as §1"}, "PRKCQ": {"target": "T31, PRKCQ (Homo sapiens, UniProt Q04759)", "T31 construct": "purchased Reaction Biology Corp", "description": "as §1"}, "PRKD3": {"target": "T32, PRKD3 (Homo sapiens, UniProt O94806)", "T32 construct": "purchased Reaction Biology Corp", "description": "as §1"}, "[1]": {"target": "T33, RPS6KA4(Kin.Dom.1-N-term) (Homo sapiens, UniProt O75676)", "T33 construct": "RPS6KA4(Kin.Dom.1-N-term); purchased Reaction Biology Corp", "description": "as §1"}, "RSK4": {"target": "T34, RSK4 (Homo sapiens, UniProt Q9UK32)", "T34 construct": "purchased Reaction Biology Corp", "description": "as §1"}, "SGK1": {"target": "T35, SGK1 (Homo sapiens, UniProt O00141)", "T35 construct": "purchased Reaction Biology Corp", "description": "as §1"}, "SNARK": {"target": "T36, SNARK (Homo sapiens, UniProt Q9H093)", "T36 construct": "purchased Reaction Biology Corp", "description": "as §1"}, "STK23": {"target": "T37, STK23 (Homo sapiens, UniProt Q9UPE1)", "T37 construct": "purchased Reaction Biology Corp", "T37 sequence (Q9UPE1 whole entry)": "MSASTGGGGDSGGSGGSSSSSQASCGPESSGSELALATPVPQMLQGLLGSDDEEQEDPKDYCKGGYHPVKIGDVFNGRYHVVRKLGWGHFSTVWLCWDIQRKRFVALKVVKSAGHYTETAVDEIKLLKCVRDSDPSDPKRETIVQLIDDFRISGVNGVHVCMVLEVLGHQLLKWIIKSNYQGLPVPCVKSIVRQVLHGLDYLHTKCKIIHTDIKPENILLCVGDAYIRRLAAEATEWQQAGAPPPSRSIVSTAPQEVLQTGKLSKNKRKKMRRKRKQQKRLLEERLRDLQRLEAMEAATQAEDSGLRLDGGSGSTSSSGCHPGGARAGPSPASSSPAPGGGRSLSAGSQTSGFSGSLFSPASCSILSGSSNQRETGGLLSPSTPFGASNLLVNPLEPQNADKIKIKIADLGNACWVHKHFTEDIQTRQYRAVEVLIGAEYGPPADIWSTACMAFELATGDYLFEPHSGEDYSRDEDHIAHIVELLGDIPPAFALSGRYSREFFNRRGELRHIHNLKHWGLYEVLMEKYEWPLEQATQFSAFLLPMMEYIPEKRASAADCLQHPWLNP", "description": "as §1"}, "TAOK3": {"target": "T38, TAOK3 (Homo sapiens, UniProt Q9H2K8)", "T38 construct": "purchased Reaction Biology Corp", "description": "as §1"}, "TBK1": {"target": "T39, TBK1 (Homo sapiens, UniProt Q9UHD2)", "T39 construct": "purchased Reaction Biology Corp", "description": "as §1"}, "TNIK": {"target": "T40, TNIK (Homo sapiens, UniProt Q9UKE5)", "T40 construct": "purchased Reaction Biology Corp", "description": "as §1"}, "TSSK1B": {"target": "T41, TSSK1B (Homo sapiens, UniProt Q9BXA7)", "T41 construct": "purchased Reaction Biology Corp", "T41 sequence (Q9BXA7 whole entry)": "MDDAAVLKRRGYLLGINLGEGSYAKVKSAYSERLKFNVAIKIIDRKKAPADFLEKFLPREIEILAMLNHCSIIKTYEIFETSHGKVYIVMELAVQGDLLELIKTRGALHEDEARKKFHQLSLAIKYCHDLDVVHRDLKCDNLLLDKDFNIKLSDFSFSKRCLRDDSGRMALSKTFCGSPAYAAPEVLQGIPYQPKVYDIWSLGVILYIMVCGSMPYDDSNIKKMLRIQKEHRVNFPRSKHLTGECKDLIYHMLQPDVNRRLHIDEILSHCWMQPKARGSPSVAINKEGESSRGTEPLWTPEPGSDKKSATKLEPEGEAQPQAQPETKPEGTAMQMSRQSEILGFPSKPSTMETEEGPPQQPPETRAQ", "description": "as §1"}, "YANK2": {"target": "T42, YANK2 (Homo sapiens, UniProt Q9NY57)", "T42 construct": "purchased Reaction Biology Corp", "description": "as §1"}, "ZAP70": {"target": "T43, ZAP70 (Homo sapiens, UniProt P43403)", "T43 construct": "purchased Reaction Biology Corp", "description": "as §1"}},
  "data": [
    {"smiles": "CCn1cnc2c(NCc3ccc(-c4ccccn4)nc3)nc(-c3ccc(N)nc3)nc21", "note": "[Compound 30d, N-([2,2′-Bipyridin]-5-ylmethyl)-2-(6-aminopyridin-3-yl)-9-ethyl-9H-purin-6-amine]", "values": [
      {"measurement": "remaining activity at 10 µM", "setting": "AKT1", "value": 94.9, "unit": "%"},
      {"measurement": "remaining activity at 10 µM", "setting": "ARAF", "value": 79.5, "unit": "%"},
      {"measurement": "remaining activity at 10 µM", "setting": "AurkA", "value": 33.4, "unit": "%"},
      {"measurement": "remaining activity at 10 µM", "setting": "BLK", "value": 66.8, "unit": "%"},
      {"measurement": "remaining activity at 10 µM", "setting": "BMX", "value": 141, "unit": "%"},
      {"measurement": "remaining activity at 10 µM", "setting": "CAMK2g", "value": 105, "unit": "%"},
      {"measurement": "remaining activity at 10 µM", "setting": "CDK4/cyclinD1", "value": 33.5, "unit": "%"},
      {"measurement": "remaining activity at 10 µM", "setting": "CSNK1G1", "value": 29.8, "unit": "%"},
      {"measurement": "remaining activity at 10 µM", "setting": "EPHB4", "value": 23.2, "unit": "%"},
      {"measurement": "remaining activity at 10 µM", "setting": "GRK1", "value": 76.3, "unit": "%"},
      {"measurement": "remaining activity at 10 µM", "setting": "GRK3", "value": 102, "unit": "%"},
      {"measurement": "remaining activity at 10 µM", "setting": "GRK6", "value": 80.6, "unit": "%"},
      {"measurement": "remaining activity at 10 µM", "setting": "IKK-epsilon", "value": 80.1, "unit": "%"},
      {"measurement": "remaining activity at 10 µM", "setting": "IRAK1", "value": 79, "unit": "%"},
      {"measurement": "remaining activity at 10 µM", "setting": "Kit", "value": 14.2, "unit": "%"},
      {"measurement": "remaining activity at 10 µM", "setting": "LATS1", "value": 85, "unit": "%"},
      {"measurement": "remaining activity at 10 µM", "setting": "LATS2", "value": 77.4, "unit": "%"},
      {"measurement": "remaining activity at 10 µM", "setting": "LIMK2", "value": 76.5, "unit": "%"},
      {"measurement": "remaining activity at 10 µM", "setting": "MAP3K2", "value": 90, "unit": "%"},
      {"measurement": "remaining activity at 10 µM", "setting": "MAPKAPK2", "value": 102, "unit": "%"},
      {"measurement": "remaining activity at 10 µM", "setting": "MAPKAPK3", "value": 100, "unit": "%"},
      {"measurement": "remaining activity at 10 µM", "setting": "MERTK", "value": 71, "unit": "%"},
      {"measurement": "remaining activity at 10 µM", "setting": "MET", "value": 96.4, "unit": "%"},
      {"measurement": "remaining activity at 10 µM", "setting": "MKK6", "value": 95.4, "unit": "%"},
      {"measurement": "remaining activity at 10 µM", "setting": "MYO3b", "value": 68.1, "unit": "%"},
      {"measurement": "remaining activity at 10 µM", "setting": "NEK7", "value": 93.2, "unit": "%"},
      {"measurement": "remaining activity at 10 µM", "setting": "PBK/TOPK", "value": 93.5, "unit": "%"},
      {"measurement": "remaining activity at 10 µM", "setting": "PDPK1", "value": 105, "unit": "%"},
      {"measurement": "remaining activity at 10 µM", "setting": "PIM2", "value": 93.8, "unit": "%"},
      {"measurement": "remaining activity at 10 µM", "setting": "PKCb1", "value": 89.9, "unit": "%"},
      {"measurement": "remaining activity at 10 µM", "setting": "PRKCQ", "value": 79.8, "unit": "%"},
      {"measurement": "remaining activity at 10 µM", "setting": "PRKD3", "value": 54.3, "unit": "%"},
      {"measurement": "remaining activity at 10 µM", "setting": "[1]", "value": 115, "unit": "%"},
      {"measurement": "remaining activity at 10 µM", "setting": "RSK4", "value": 54.2, "unit": "%"},
      {"measurement": "remaining activity at 10 µM", "setting": "SGK1", "value": 84.9, "unit": "%"},
      {"measurement": "remaining activity at 10 µM", "setting": "SNARK", "value": 59, "unit": "%"},
      {"measurement": "remaining activity at 10 µM", "setting": "STK23", "value": 82.8, "unit": "%"},
      {"measurement": "remaining activity at 10 µM", "setting": "TAOK3", "value": 23.1, "unit": "%"},
      {"measurement": "remaining activity at 10 µM", "setting": "TBK1", "value": 55, "unit": "%"},
      {"measurement": "remaining activity at 10 µM", "setting": "TNIK", "value": 69, "unit": "%"},
      {"measurement": "remaining activity at 10 µM", "setting": "TSSK1B", "value": 38, "unit": "%"},
      {"measurement": "remaining activity at 10 µM", "setting": "YANK2", "value": 57.6, "unit": "%"},
      {"measurement": "remaining activity at 10 µM", "setting": "ZAP70", "value": 100, "unit": "%"}
    ]}
  ]
}
